#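 Following 48 hours of exposure in 96-well plates, responses at five concentrations were used to interpolate endpoints linearly. GI50 marks 50% less growth. TGI is the concentration that stops growth completely.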
# Tests used:
# Assay in all cases: NCI tumour cell line growth inhibition, 48 h
# TK-10 renal = system: TK-10 renal
# UO-31 renal = system: UO-31 renal
# HCT-15 colon = system: HCT-15 colon
# SNB-75 CNS = system: SNB-75 CNS
# NCI-H226 lung = system: NCI-H226 lung
# HT29 colon = system: HT29 colon
# SW-620 colon = system: SW-620 colon
# SF-268 CNS = system: SF-268 CNS
# KM12 colon = system: KM12 colon
# M14 melanoma = system: M14 melanoma
SMILES,GI50 (TK-10 renal) [µM],TGI (TK-10 renal) [µM],GI50 (UO-31 renal) [µM],TGI (UO-31 renal) [µM],GI50 (HCT-15 colon) [µM],TGI (HCT-15 colon) [µM],GI50 (SNB-75 CNS) [µM],TGI (SNB-75 CNS) [µM],GI50 (NCI-H226 lung) [µM],TGI (NCI-H226 lung) [µM],GI50 (HT29 colon) [µM],TGI (HT29 colon) [µM],GI50 (SW-620 colon) [µM],TGI (SW-620 colon) [µM],GI50 (SF-268 CNS) [µM],TGI (SF-268 CNS) [µM],GI50 (KM12 colon) [µM],TGI (KM12 colon) [µM],TGI (M14 melanoma) [µM],GI50 (M14 melanoma) [µM]
COc1ccc(-n2cc(-c3ccc(Cl)cc3)[nH]c2=S)cc1Cl,47.3,> 100,19.1,47.8,> 100,> 100,21.6,46.7,23.7,65.6,74.2,> 100,> 100,> 100,28,76.5,> 100,> 100,,
CC(=O)NC1=NC(=O)/C(=C/c2ccc(Cl)cc2Cl)N1C,,> 100,,> 100,,> 100,,> 100,,82.5,,> 100,,> 100,,> 100,,> 100,> 100,
COC(=O)C1=C(O)C(C(=O)OC)[C@@]2(O)[C@@H](C(=O)OC)C(c3ccccc3C(F)(F)F)C[C@@H]1[C@@H]2C(=O)OC (stereo partly drawn),12.1,25.5,13,26.5,1.4,3.11,0.0935,1.53,,,0.228,5.3,4.02,20.1,12.2,30.3,16.9,32.8,47.4,13.9
OCCOCn1nc(-c2ccccc2)nc1-c1cnccn1,,> 100,,> 100,,> 100,,> 100,,,,> 100,,> 100,,> 100,,> 100,> 100,
O=C(CC1Sc2ccccc2NC1=O)Nc1ccc([N+](=O)[O-])cc1[N+](=O)[O-] (stereo not drawn),,> 100,,25.1,,,,38.7,,42.6,,33.1,,32.4,,30.9,,59.5,31.2,
O=C(CCCCCn1c2ccccc2c2c3c(c4c5ccccc5[nH]c4c21)C(=O)N(O)C3=O)N1CCOCC1,2.03,5.72,1.6,4.28,2.67,8.32,,,2.58,6.51,2.42,5.88,2.12,6.02,,,2.14,5.03,5.52,2.14
COC(=O)C(=O)C(C(=O)C(=O)Nc1ccc(Cl)cc1Cl)c1nc2ccc(Cl)cc2[nH]c1=O (stereo not drawn),,> 100,,> 100,,> 100,,> 100,,> 100,,> 100,,> 100,,> 100,,> 100,> 100,
COc1ccc(-c2ccc(/C=N/n3cnn(CN4CCN(C)CC4)c3=S)o2)c([N+](=O)[O-])c1,36.4,> 100,83.9,> 100,16.7,37.5,68.9,> 100,,,28.4,> 100,31.6,> 100,23.6,69.5,33.3,> 100,60.7,14.2

# Reference: PubChem BioAssay (NCI)
